Among the data in patent US7304174B2, “CaSR antagonist” (Japan Tobacco Inc., priority 2003, dated 2007) are IC50 values, retold here.

The target of this assay is T1, human calcium receptor (Homo sapiens, UniProt P41180).
T1 construct: expressed in transfected cells; host or cells: cell strain derived from rat adrenal, co-transformed with luciferase cDNA
T1 sequence (P41180 20-1078): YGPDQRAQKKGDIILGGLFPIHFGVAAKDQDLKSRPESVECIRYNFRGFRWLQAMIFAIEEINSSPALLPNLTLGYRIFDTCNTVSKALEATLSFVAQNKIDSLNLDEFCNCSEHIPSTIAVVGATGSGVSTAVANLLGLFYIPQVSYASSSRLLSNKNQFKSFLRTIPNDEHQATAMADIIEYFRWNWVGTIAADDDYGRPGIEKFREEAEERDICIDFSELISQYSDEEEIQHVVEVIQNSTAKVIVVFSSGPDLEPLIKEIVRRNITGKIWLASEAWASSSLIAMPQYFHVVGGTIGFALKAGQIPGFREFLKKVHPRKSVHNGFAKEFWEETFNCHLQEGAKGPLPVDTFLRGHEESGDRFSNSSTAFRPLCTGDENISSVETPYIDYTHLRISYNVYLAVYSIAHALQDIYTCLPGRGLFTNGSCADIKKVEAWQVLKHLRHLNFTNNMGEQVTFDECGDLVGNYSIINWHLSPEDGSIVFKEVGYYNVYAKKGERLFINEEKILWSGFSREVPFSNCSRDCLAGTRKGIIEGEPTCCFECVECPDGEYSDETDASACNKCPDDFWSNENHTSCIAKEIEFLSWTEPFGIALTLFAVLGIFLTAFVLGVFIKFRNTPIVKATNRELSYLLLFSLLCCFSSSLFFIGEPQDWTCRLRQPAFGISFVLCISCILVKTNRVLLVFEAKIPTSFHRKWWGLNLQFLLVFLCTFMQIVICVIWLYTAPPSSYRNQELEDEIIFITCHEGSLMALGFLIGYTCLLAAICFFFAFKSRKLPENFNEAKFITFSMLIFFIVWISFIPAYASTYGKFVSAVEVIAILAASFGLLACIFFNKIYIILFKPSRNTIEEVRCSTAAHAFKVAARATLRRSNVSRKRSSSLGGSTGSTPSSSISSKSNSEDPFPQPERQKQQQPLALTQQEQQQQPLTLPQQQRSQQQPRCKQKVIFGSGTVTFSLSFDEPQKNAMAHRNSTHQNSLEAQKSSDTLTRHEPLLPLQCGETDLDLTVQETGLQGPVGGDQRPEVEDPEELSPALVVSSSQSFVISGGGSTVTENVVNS
The assay is described as follows: Evaluation of antagonistic action on calcium receptor using reporter gene (luciferase). The assay is classed as cell-based. To be noted: transformed rat adrenal derived cells, 5 mM calcium chloride, culture 4 hrs, luciferase activity; read-out: Reporter gene assay (IC50, concentration showing 50% inhibitory rate). An outline of the steps: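 Rat adrenal-derived cells transfected with luciferase and human calcium receptor cDNA, in F12 with 0.5% dialyzed horse serum and 0.25% dialyzed fetal bovine serum. Luciferase luminescence gave % inhibition vs control and blank; IC50 at 50% inhibition.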
On to `Cc1ccc(CC(C)(C)NC[C@@H](O)CO[C@H](C)c2ccccc2-c2ccc(C(=O)O)c(OC(F)(F)F)c2)cc1F` [Example 1-103, 2′-[1-[(2R)-3-[[1-(3-fluoro-4-methylphenyl)-2-methylpropan-2-yl]amino]-2-hydroxypropoxy]ethyl]-3-(trifluoromethoxy)biphenyl-4-carboxylic acid], for which the IC50 came to 3 nM.

As to `Cc1cc(-c2ccccc2[C@@H](C)OC[C@H](O)CNC(C)(C)Cc2ccc(C)c(C(F)(F)F)c2)ccc1C(=O)O` [Example 1-104, 2′-[1-[(2R)-3-[[1-(3-trifluoromethyl-4-methylphenyl)-2-methylpropan-2-yl]amino]-2-hydroxypropoxy]ethyl]-3-methylbiphenyl-4-carboxylic acid], the IC50 is 28 nM.

Regarding `Cc1cc(-c2ccccc2[C@@H](C)OC[C@H](O)CNC(C)(C)Cc2ccc(Cl)c(F)c2)ccc1C(=O)O` [Example 1-105], the IC50 came to 9 nM.

Consider `C[C@@H](OC[C@H](O)CNC(C)(C)Cc1ccc(Cl)c(F)c1)c1ccccc1-c1ccc(C(=O)O)c(CO)c1` [Example 1-106, 2′-[1-[(2R)-3-[[1-(4-chloro-3-fluorophenyl)-2-methylpropan-2-yl]amino]-2-hydroxypropoxy]ethyl]-3-(hydroxymethyl)biphenyl-4-carboxylic acid], for which the IC50 amounted to 20 nM.

With `C[C@@H](OC[C@H](O)CNC(C)(C)Cc1ccc(Cl)c(F)c1)c1ccccc1-c1ccc(C(=O)O)c(C(=O)O)c1` [Example 1-107, 2′-[1-[(2R)-3-[[1-(4-chloro-3-fluorophenyl)-2-methylpropan-2-yl]amino]-2-hydroxypropoxy]ethyl]-3-carboxylphenyl-4-carboxylic acid], the IC50 was found to be 200 nM.

Take `Cc1ccc(CC(C)(C)NC[C@@H](O)CO[C@H](C)c2ccccc2-c2ccc(C(=O)O)c(C)c2)cc1F` [Example 1-108]: the IC50 worked out at 14 nM.

Take `Cc1cc(-c2ccccc2[C@@H](C)OC[C@H](O)CNC(C)(C)Cc2ccc(Cl)cc2F)ccc1C(=O)O` [Example 1-109]: the IC50 was determined as 15 nM.

Turning to `Cc1cc(-c2ccccc2[C@@H](C)OC[C@H](O)CNC(C)(C)Cc2ccc(Cl)cc2F)ccc1C(=O)O` [Example 1-110], the IC50 was determined as 26 nM.

Consider `COC(=O)c1ccc(Oc2ccccc2C(C)OC[C@H](O)CNC(C)(C)Cc2ccc3ccccc3c2)cc1` (stereo partly drawn) [Example 2-3, methyl 4-[2-[1-[(2R)-3-[[1-(naphthalen-2-yl)-2-methylpropan-2-yl]amino]-2-hydroxypropoxy]ethyl]phenoxy]benzoate], for which the IC50 was 71 nM.

`CC(OC[C@H](O)CNC(C)(C)Cc1ccc2ccccc2c1)c1ccccc1Oc1ccc(C(=O)O)cc1` (stereo partly drawn) [Example 2-4, 4-[2-[1-[(2R)-3-[[1-(naphthalen-2-yl)-2-methylpropan-2-yl]amino]-2-hydroxypropoxy]ethyl]phenoxy]benzoic acid]: the IC50 came out at 10 nM.

Take `CC(OC[C@H](O)CNC(C)(C)Cc1ccc(Cl)cc1F)c1ccccc1Oc1ccc(C(=O)O)cc1` (stereo partly drawn) [Example 2-6, 4-[2-[1-[(2R)-3-[[1-(4-chloro-2-fluorophenyl)-2-methylpropan-2-yl]amino]-2-hydroxypropoxy]ethyl]phenoxy]benzoic acid]: the IC50 came out at 22 nM.

As for `Cc1ccc(CC(C)(C)NC[C@@H](O)COC(C)c2ccccc2Oc2ccc(C(=O)O)cc2)cc1F` (stereo partly drawn) [Example 2-7, 4-[2-[1-[(2R)-3-[[1-(3-fluoro-4-methylphenyl)-2-methylpropan-2-yl]amino]-2-hydroxypropoxy]ethyl]phenoxy]benzoic acid], the IC50 was 17 nM.

Take `Cc1ccc(CC(C)(C)NC[C@@H](O)COC(C)c2ccccc2Oc2cccc(C(=O)O)c2)cc1F` (stereo partly drawn) [Example 2-8, 3-[2-[1-[(2R)-3-[[1-(3-fluoro-4-methylphenyl)-2-methylpropan-2-yl]amino]-2-hydroxypropoxy]ethyl]phenoxy]benzoic acid]: the IC50 was 54 nM.

As to `CC(OC[C@H](O)CNC(C)(C)Cc1ccc2ccccc2c1)c1ccccc1C=Cc1ccc(C(=O)O)cc1` (stereo partly drawn) [Example 2-9, 4-[2-[2-[1-[(2R)-3-[[1-(naphthalen-2-yl)-2-methylpropan-2-yl]amino]-2-hydroxypropoxy]ethyl]phenyl]vinyl]benzoic acid], the IC50 turned out to be 16 nM.

On to `CC(OC[C@H](O)CNC(C)(C)Cc1ccc2ccccc2c1)c1ccccc1Sc1cccc(C(=O)O)c1` (stereo partly drawn) [Example 2-10, 3-[2-[1-[(2R)-3-[[1-(naphthalen-2-yl)-2-methylpropan-2-yl]amino]-2-hydroxypropoxy]ethyl]phenylthio]benzoic acid], for which the IC50 came to 27 nM.

Consider `Cc1ccc(CC(C)(C)NC[C@@H](O)COC(C)c2ccccc2C=Cc2ccc(C(=O)O)cc2)cc1F` (stereo partly drawn) [Example 2-11, 4-[2-[2-[1-[(2R)-3-[[1-(3-fluoro-4-methylphenyl)-2-methylpropan-2-yl]amino]-2-hydroxypropoxy]ethyl]phenyl]vinyl]benzoic acid], for which the IC50 turned out to be 21 nM.

As for `Cc1ccc(CC(C)(C)NC[C@@H](O)COC(C)c2ccccc2Oc2c(C)cc(C(=O)O)cc2C)cc1F` (stereo partly drawn) [Example 2-12, 4-[2-[1-[(2R)-3-[[1-(3-fluoro-4-methylphenyl)-2-methylpropan-2-yl]amino]-2-hydroxypropoxy]ethyl]phenoxy]-3,5-dimethylbenzoic acid], the IC50 was found to be 5 nM.

For the compound `Cc1cc(C(=O)O)cc(C)c1Oc1ccccc1C(C)OC[C@H](O)CNC(C)(C)Cc1ccc(Cl)cc1F` (stereo partly drawn) [Example 2-13, 4-[2-[1-[(2R)-3-[[1-(4-chloro-2-fluorophenyl)-2-methylpropan-2-yl]amino]-2-hydroxypropoxy]ethyl]phenoxy]-3,5-dimethylbenzoic acid], the IC50 is 22 nM.

Take `C[C@@H](OC[C@H](O)CNC(C)(C)Cc1ccc2ccccc2c1)c1ccccc1Cc1ccc(C(=O)O)cc1` [Example 2-14, 4-[2-[1-[(2R)-3-[[1-(naphthalen-2-yl)-2-methylpropan-2-yl]amino]-2-hydroxypropoxy]ethyl]benzyl]benzoic acid]: the IC50 amounted to 53 nM.

Consider `C[C@@H](OC[C@H](O)CNC(C)(C)Cc1ccc2ccccc2c1)c1ccccc1Cc1cccc(C(=O)O)c1` [Example 2-15, 3-[2-[1-[(2R)-3-[[1-(naphthalen-2-yl)-2-methylpropan-2-yl]amino]-2-hydroxypropoxy]ethyl]benzyl]benzoic acid], for which the IC50 was found to be 16 nM.

As to `CC(OC[C@H](O)CNC(C)(C)Cc1ccc2ccccc2c1)c1ccccc1Sc1ccc(C(=O)O)cc1` (stereo partly drawn) [Example 2-16, 4-[2-[1-[(2R)-3-[[1-(naphthalen-2-yl)-2-methylpropan-2-yl]amino]-2-hydroxypropoxy]ethyl]phenylthio]benzoic acid], the IC50 came to 14 nM.

Regarding `CC(OC[C@H](O)CNC(C)(C)Cc1ccc2ccccc2c1)c1ccccc1[S+]([O-])c1ccc(C(=O)O)cc1` (stereo partly drawn) [Example 2-17, 4-[2-[1-[(2R)-3-[[1-(naphthalen-2-yl)-2-methylpropan-2-yl]amino]-2-hydroxypropoxy]ethyl]phenylsulfinyl]benzoic acid], the IC50 was 148 nM.

As to `CC(OC[C@H](O)CNC(C)(C)Cc1ccc2ccccc2c1)c1ccccc1S(=O)(=O)c1ccc(C(=O)O)cc1` (stereo partly drawn) [Example 2-18, 4-[2-[1-[(2R)-3-[[1-(naphthalen-2-yl)-2-methylpropan-2-yl]amino]-2-hydroxypropoxy]ethyl]phenylsulfonyl]benzoic acid], the IC50 amounted to 236 nM.

Consider `CC(OC[C@H](O)CNC(C)(C)Cc1ccc2ccccc2c1)c1ccccc1NCc1ccc(C(=O)O)cc1` (stereo partly drawn) [Example 2-19, 4-[[2-[1-[(2R)-3-[[1-(naphthalen-2-yl)-2-methylpropan-2-yl]amino]-2-hydroxypropoxy]ethyl]phenylamino]methyl]benzoic acid], for which the IC50 was 29 nM.

Turning to `CC(OC[C@H](O)CNC(C)(C)Cc1ccc2ccccc2c1)c1ccccc1OCc1ccccc1C(=O)O` (stereo partly drawn) [Example 2-20, 2-[[2-[1-[(2R)-3-[[1-(naphthalen-2-yl)-2-methylpropan-2-yl]amino]-2-hydroxypropoxy]ethyl]phenoxy]methyl]benzoic acid], the IC50 is 20 nM.

Regarding `CC(OC[C@H](O)CNC(C)(C)Cc1ccc2ccccc2c1)c1ccccc1OCc1cccc(C(=O)O)c1` (stereo partly drawn) [Example 2-21, 3-[[2-[1-[(2R)-3-[[1-(naphthalen-2-yl)-2-methylpropan-2-yl]amino]-2-hydroxypropoxy]ethyl]phenoxy]methyl]benzoic acid], the IC50 was found to be 17 nM.
